Experimental data as given in patent publication US12162858B2, “Quinoline derivatives as inhibitors of AXL/MER RTK and CSF1R” (QURIENT CO., LTD., priority 2018, dated 2024).

Assays:
[1] = system: EMT-6 tumor cells; test: EMT-6 syngeneic tumor model; assay type: in vivo, BALB/c mice; conditions: oral, daily; vs compound 27 of WO 2016/166250 or vehicle; FIG. 1
Source text: (§1) FIGS. 1 and 2 show comparison data of compound 4 of the present invention (marked with two asterisks** and diamond) vs. compound 27 of WO2016/166250 (marked with single asterisk* and open square) in mouse models EMT-6 and MV4-11; EMT-6 measures triple inhibition of Axl, Mer and CSF1R. MV4-11 measures inhibition of Axl.
In case of CSF1R, it mediates tumorigenesis in tumor-immune microenvironments and is expressed on myeloid cell tumor-associated macrophages (TAMs); elevated serum CSF1, increased numbers of TAMs in tumors, and high expression of tissue CSF1 and/or CSF1R are associated with poor prognosis in patients with various cancers. […] Therefore, EMT-6 is a suitable model for immune-oncology drug efficacy effects through changes in target immune cells.
BALB/c mice (6-8 week female, Beijing Vital River Laboratory Animal Technology Co., Ltd.) were inoculated subcutaneously at the upper right flank with EMT-6 tumor cells (1×10^6) in 0.1 mL of PBS for tumor development. […] Tumor volumes were measured every 3 days with a digital caliper, and were calculated using the formula: V=0.5a×b^2 where a and b are the long and short diameters of the tumor in mm, respectively. Body weight was measured every 3 days. […] Death and observed clinical signs were recorded on the basis of the numbers of animals within each subset. […]

[2] = system: MV4-11 tumor cells; test: MV4-11 xenograft tumor model; assay type: in vivo, BALB/c nude mice; conditions: oral, daily; vs compound 27 of WO 2016/166250 or vehicle; FIG. 2
Source text: as §1
High expression of Axl or Gas6 in acute myeloid leukemia (AML) patients is prognostic for poor survival outcome. AML cells induce expression and secretion of the Axl ligand Gas6 by bone marrow-derived stromal cells (BMDSCs). Gas6 in turn mediates proliferation, survival, and chemoresistance of Axl-expressing AML cells. This Gas6/Axl paracrine axis between AML cells and BMDSCs establishes a chemoprotective tumor cell niche that can be abrogated by Axl-targeting approaches. […]
BALB/c nude mice (6-8 week female, Shanghai SIPPR/BK Laboratory Animal Co., LTD.) were inoculated subcutaneously at the upper right flank with MV4-11 tumor cells (1×10^7) in 0.1 mL of PBS+Matrigel (1:1) for tumor development. […] Tumor volumes were measured every 3 days with a digital caliper, and were calculated using the formula: V=0.5a×b^2 where a and b are the long and short diameters of the tumor in mm, respectively. Body weight was measured every 3 days. […] Death and observed clinical signs were recorded on the basis of the numbers of animals within each subset. […]

`CCn1cc(OCC(F)(F)F)c(C(=O)Nc2ccc(Oc3ccnc4cc(OC)c(OC)cc34)cn2)n1` [Compound 4] was tested, and the “tumor growth delay, EMT-6 syngeneic model” value [1] was “delay tumor growth to a significantly larger extent” and the “tumor growth delay, MV4-11 xenograft model” value [2] was “delay tumor growth to a drastically larger extent”.
